According to US20230118795A1, “ARYL OR HETEROARYL PYRIDONE OR PYRIMIDINE DERIVATIVE, PREPARATION METHOD AND USE THEREOF” (SUZHOU ZELGEN BIOPHARMACEUTICALS CO., LTD., priority 2020, published 2023):
pIC50: −log10 of the molar value. Like-named read-outs stand apart in the source and are kept apart here.

What was measured:
[1] = system: NCI-H358 (KRAS^G12C mutation) cell; assay: Cell assay of antiproliferative activity against NCI-H358 cell (Celltiter-Glo, 5 days); assay type: cell-based; settings: 5 days incubation
In short: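 KRAS G12C NCI-H358 cells were plated in 384-well format and incubated overnight before compound addition. Compounds were added as a 10-point series (diluted from 50 μM to 0.003 μM before transfer) and incubated 5 days. Viability by CellTiter-Glo luminescence, with IC50 from curve fitting.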

NCI-H358 tumor cells = assay: H358 CDX tumor model, anti-tumor activity; assay type: in vivo; settings: NCI-H358 xenograft in nude mice; for efficacy compared with control compound AMG 510 (in words): 20 mg/Kg; for TV (mm^3) Day 0: Day 0 (at grouping), 20 mg/Kg intragastric every day; for % TGI / % Tumor Growth / TV (mm^3) Day 20: Day 20, 20 mg/Kg intragastric every day
Description: 100 uL suspension containing 5×10^6 NCI-H358 tumor cells was subcutaneously injected into the right posterior back of nude mice. The health of the mice was monitored daily. Measurements were started when the tumor grew palpable. The tumor volume calculation formula was adopted: 0.5×L×W2, where L and W represented tumor length and width, respectively. The tumor grew to about 200 mm^3, the mice were randomly divided into groups. Mice were intragastrically administrated the corresponding dose (20 mg/Kg) of the compound's solution every day, and their general status was monitored at the same time. The tumor was measured 2 times a week, and the weight was measured twice a week.

[2] = Pharmacokinetic test in mice, plasma concentration by LC/MS/MS; assay type: in vivo; settings: male ICR mice, 30 mg/kg by gavage, CMC/TW80 carrier, n = 4, mean
Description: Evaluation of Pharmacokinetic Tests in Mice
Male ICR mice with a body weight of about 20-30 g, were given 30 mg/kg of solutions of compounds of Examples 10B, 16B, 18A, 63B and 78B of the present invention [CMC/TW80 as carrier] by gavage after fasting overnight. Blood samples were collected at 0.5, 1.0, 2.0, 4.0, 6.0, 8.0, 12 and 24 hours after the compound was administrated, and the concentrations of the compound in plasma were determined by LC/MS/MS.

For `C=CC(=O)N1C[C@H](C)N(c2nc(=O)n(-c3c(C4CCC4)cccc3S(C)(=O)=O)c3nc(-c4c(O)cccc4F)c(F)cc23)C[C@H]1C` (single isomer, unassigned) [Example 63B], the pIC50 [1] was 8.10, the “efficacy compared with control compound AMG 510 (in words)” value (NCI-H358 tumor cells) was “better efficacy than the control compound AMG 510” and the “TV (mm^3) Day 0” value (NCI-H358 tumor cells) was 196 mm^3. The “% TGI” value (NCI-H358 tumor cells) was 97.8%, the “% Tumor Growth” value (NCI-H358 tumor cells) was 19% and the “TV (mm^3) Day 20” value (NCI-H358 tumor cells) was 263 mm^3. The AUC0-t [2] was 1540 ng·h/mL and the Cmax [2] was 796 ng/mL.
In the case of `C=CC(=O)N1CCN(c2nc(=O)n(-c3c(C)ccnc3C(C)C)c3nc(-c4c(O)cccc4F)c(F)cc23)[C@@H](C)C1` [AMG510, reference compound], the “TV (mm^3) Day 0” value (NCI-H358 tumor cells) was 196 mm^3, the “% TGI” value (NCI-H358 tumor cells) was 86.8% and the “% Tumor Growth” value (NCI-H358 tumor cells) was 117%. For the same compound, the “TV (mm^3) Day 20” value (NCI-H358 tumor cells) was 437 mm^3.
Compound `C=CC(=O)N1CCN(c2nc(=O)n(-c3c(S(C)(=O)=O)ccnc3C(C)C)c3nc(-c4c(O)cccc4F)c(F)cc23)[C@@H](C)C1` (single isomer, unassigned) [Example 18A] has a pIC50 [1] of 7.89, an AUC0-t ([2]; mouse, po, read-out: AUC0-t) of 219 ng·h/mL and a Cmax ([2]; mouse, po, read-out: Cmax) of 336 ng/mL.
In the case of `C=CC(=O)N1CCN(c2nc(=O)n(-c3c(C(C)C)cccc3S(C)(=O)=O)c3nc(-c4c(O)cccc4F)c(F)cc23)[C@@H](C)C1` (single isomer, unassigned) [Example 10B], the pIC50 [1] was 8.30, the AUC0-t [2] was 1548 ng·h/mL and the Cmax [2] was 1570 ng/mL.
Compound `C=CC(=O)N1CCN(c2nc(=O)n(-c3c(C(C)C)ccnc3S(C)(=O)=O)c3nc(-c4c(O)cccc4F)c(F)cc23)[C@@H](C)C1` (single isomer, unassigned) [Example 16B] has a pIC50 [1] of 8.15, an AUC0-t [2] of 46.1 ng·h/mL and a Cmax [2] of 26.1 ng/mL.
In the case of `C=CC(=O)N1C[C@H](C)N(c2nc(=O)n(-c3c(C(C)C)cccc3S(C)(=O)=O)c3nc(-c4c(O)cccc4F)c(F)cc23)C[C@H]1C` (single isomer, unassigned) [Example 78B], the pIC50 [1] was 8.15, the “efficacy compared with control compound AMG 510 (in words)” value (NCI-H358 tumor cells) was “better efficacy than the control compound AMG 510” and the “TV (mm^3) Day 0” value (NCI-H358 tumor cells) was 196 mm^3. For the same compound, the “% TGI” value (NCI-H358 tumor cells) was 98.5%, the “% Tumor Growth” value (NCI-H358 tumor cells) was 13% and the “TV (mm^3) Day 20” value (NCI-H358 tumor cells) was 231 mm^3. It also gave an AUC0-t [2] of 688 ng·h/mL and a Cmax [2] of 722 ng/mL.
`C=CC(=O)N1CCN(c2nc(=O)n(-c3c(C(C)C)cccc3S(C)(=O)=O)c3nc(-c4cncn4C)c(F)cc23)[C@@H](C)C1` [Example 70, (S)-4-(4-acryloyl-2-methylpiperazin-1-yl)-6-fluoro-1-(2-isopropyl-6-(methylsulfonyl)phenyl)-7-(1-methyl-1H-imidazol-5-yl) pyridino [2,3-d] pyrimidin-2 (1H)-one] gave a pIC50 ([1]; Homo sapiens, NCI-H358, 120 h) of less than 5.00.
In the case of `C=CC(=O)N1CCN(c2nc(=O)n(-c3c(C4CC4)cccc3S(C)(=O)=O)c3nc(-c4c(O)cccc4F)c(F)cc23)[C@@H](C)C1` (single isomer, unassigned) [Example 6A], the pIC50 [1] was 6.70.
With `C=CC(=O)N1CCN(c2nc(=O)n(-c3c(CC)cccc3S(C)(=O)=O)c3nc(-c4c(O)cccc4F)c(F)cc23)[C@@H](C)C1` [Example 5, 4-((S)-4-acrylo-2-methylpiperazin-1-yl)-1-(2-ethyl-6-(methylsulfonyl)phenyl)-6-fluoro-7-(2-fluoro-6-hydroxyphenyl) pyridino[2,3-d] pyrimidin-2(1H)-one] the pIC50 [1] was 7.55.
`C=CC(=O)N1CCN(c2nc(=O)n(-c3c(C4CCC4)cccc3S(C)(=O)=O)c3nc(-c4c(O)cccc4F)c(F)cc23)[C@@H](C)C1` (single isomer, unassigned) [Example 25B] gave a pIC50 [1] of 8.22.
Work on `C=CC(=O)N1CCN(c2nc(=O)n(-c3c(C(C)C)cccc3S(C)(=O)=O)c3nc(-c4ccn[nH]4)c(F)cc23)[C@@H](C)C1` [Example 69, (S)-4-(4-acryloyl-2-methylpiperazin-1-yl)-6-fluoro-1-(2-isopropyl-6-(methylsulfonyl)phenyl)-7-(1H-pyrazol-5-yl) pyridino[2,3-d] pyrimidin-2(1H)-one] yielded a pIC50 ([1]; Homo sapiens, NCI-H358, 120 h) of less than 5.00.
Compound `C=C(F)C(=O)N1CCN(c2nc(=O)n(-c3c(C(C)C)cccc3S(C)(=O)=O)c3nc(-c4ccccc4Cl)c(F)cc23)[C@@H](C)C1` [Example 23, (S)-7-(2-chlorophenyl)-6-fluoro-4-(4-(2-fluoroacryloyl)-2-methylpiperazin-1-yl)-1-(2-isopropyl-6-(methylsulfonyl)phenyl)pyridino[2,3-d]pyrimidin-2(1H)-one] has a pIC50 ([1]; Homo sapiens, NCI-H358, 120 h) of 5.96.
`C=CC(=O)N1CCN(c2nc(=O)n(-c3c(C(C)C)cccc3S(C)(=O)=O)c3nc(-c4c(Cl)ccc5cn[nH]c45)c(F)cc23)[C@@H](C)C1` [Example 75] showed a pIC50 [1] of less than 5.00.
